Test results reported in US20250084095A1, “Aminopyrimidine Derivatives as Cyclin-Dependent Kinase Inhibitors” (Accutar Biotechnology Inc., priority 2023, published 2025).
Where two headings read alike, the source gives them in different places.

Tests used:
22RV1 cells = assay: Cell growth inhibition of 22RV1 cells (CellTiter-Glo); type: cell-based; settings: 5 days, CellTiter-Glo
Procedure, shortened: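 22RV1 cells were plated in RPMI1640 with FBS (20% in one version, 10% in the other) and dosed next day at various concentrations from DMSO stocks. After 5 days at 37 °C, viability was measured by CellTiter-Glo luminescence.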

[1] = test system: Phospho-Rb (Ser807/811) in SW1573-CDK4 KO cells; assay: Phospho-Rb expression inhibition in SW1573-CDK4 KO cells quantified by in cell Western; type: cell-based; settings: Homo sapiens, 24 hours, read-out: SW1573 CDK4 KO pRb IC50
Experimental: Parental SW1573 cells were obtained from the American Type Culture Collection (ATCC). CDK4 or CDK6 gene in […] cells was knocked out using the CRISPR-Cas9 technology. First, gRNA complex of CDK4 or CDK6 was prepared with Alt-R CRISPR-Cas9 tracrRNA and crRNA CDK4 (5′-[…]-3′ (SEQ ID NO: 4)) or CDK6 (5′-[…]-3′ (SEQ ID NO. 5)) (IDT-Integrated DNA Technologies), and then ribonucleoprotein (RNP) complex of CDK4 or CDK6 was prepared with respective gRNA complex and Alt-R S.p. Cas9 Nuclease V3 (IDT-Integrated DNA Technologies). Next, 5×10^4/10 μL SWJ1573 cells were electroporated with the CDK4 or CDK6 RNP complex and Alt-R Cas9 Electroporation Enhancer using Neon Transfection System (Thermo Fisher). Cells were then plated in a 96-well plate to select single clones for validation of CDK4 or CDK6 knockout by western blot analysis.
MCF7 cells were obtained from American Type Culture Collection (ATCC, HTB-22). SW1573-CDK6 KO and SW1573-CDK4 KO cells were generated by the CRISPR-Cas9 technology. All cells were plated in 96-well plates (VWR #10062-900, or Corning #3904) in 90 uL culture medium at a density of 20,000 cells/well in the respective growth medium containing 10% FBS and 1% Penicillin Streptomycin, and then incubated at 37° C. overnight. The following day, the test compound was administered to the cells by using 1000× compound stock solution prepared in DMSO at various concentrations. 1000× compound stock solution was first diluted in culturing medium to 10×, then 10 uL compound medium was added to each well in the cell plates. After administration of the compound, the cells were then incubated at 37° C. for 24 hours. Upon completion, the cells were washed with PBS briefly. 150 uL/well of 4% formaldehyde was added and the plates were incubated at room temperature for 20 mins. The cells were washed with PBS briefly, and permeabilized with 150 uL/well of ice cold 100% methanol for 10 mins. The cells were washed with PBS briefly and blocked with 100 uL/well LI-COR blocking buffer for 1 hr at room temperature with gentle shaking. The cells were incubated overnight at 4° C. with 50 uL primary antibody rabbit anti-Phospho-Rb (Ser807/811) (1: 500, Cell Signaling, #8516) and anti-Rb (1:200, Santa Cruz, sc-73598) diluted in Intercept Blocking Buffer (LI-COR, #927-60001) containing 0.1% Tween 20. The next day, the cells were washed with 200 uL PBS containing 0.1% Tween 20, 5×5 mins at room temperature with gentle shaking, and incubated with 50 uL secondary antibody, IRDye® 800CW Goat anti-Rabbit IgG (1:1000, LI-COR, #926-32211) and IRDye®680RD Goat anti-Mouse IgG (1:1000, LI-COR, #926-68070), in LI-COR blocking buffer with 0.2% Tween 20 for 1 hr at room temperature with gentle shaking. The cells were washed with 200 uL PBS containing 0.1% Tween 20, 5×5 mins at room temperature with gentle shaking. The cells were washed with PBS for 5 mins. 100 uL fresh PBS was added to each well and the plates were imaged on a LI-COR Odyssey CLX plate reader.

CDK9-CYCLIN T1 = CDK9-CYCLIN T1 (Homo sapiens (Human), UniProt P50750); assay: CDK protein kinase inhibition by the ADP-Glo Assay, CDK9-CYCLIN T1; type: biochemical; settings: 1000 μM ATP
Sequence of CDK9-CYCLIN T1 (P50750 whole entry): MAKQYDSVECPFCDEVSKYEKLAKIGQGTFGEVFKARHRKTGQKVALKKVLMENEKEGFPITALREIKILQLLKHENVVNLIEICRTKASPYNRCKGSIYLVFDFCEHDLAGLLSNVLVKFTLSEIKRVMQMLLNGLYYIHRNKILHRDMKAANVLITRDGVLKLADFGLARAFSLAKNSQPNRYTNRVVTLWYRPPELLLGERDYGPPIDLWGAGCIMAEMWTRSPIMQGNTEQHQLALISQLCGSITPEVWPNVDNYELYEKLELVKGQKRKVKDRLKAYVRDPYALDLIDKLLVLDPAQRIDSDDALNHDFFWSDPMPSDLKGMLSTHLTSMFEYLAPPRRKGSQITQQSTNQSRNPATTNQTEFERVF
Sequence of CDK9-CYCLIN T1 (O60563 whole entry partner): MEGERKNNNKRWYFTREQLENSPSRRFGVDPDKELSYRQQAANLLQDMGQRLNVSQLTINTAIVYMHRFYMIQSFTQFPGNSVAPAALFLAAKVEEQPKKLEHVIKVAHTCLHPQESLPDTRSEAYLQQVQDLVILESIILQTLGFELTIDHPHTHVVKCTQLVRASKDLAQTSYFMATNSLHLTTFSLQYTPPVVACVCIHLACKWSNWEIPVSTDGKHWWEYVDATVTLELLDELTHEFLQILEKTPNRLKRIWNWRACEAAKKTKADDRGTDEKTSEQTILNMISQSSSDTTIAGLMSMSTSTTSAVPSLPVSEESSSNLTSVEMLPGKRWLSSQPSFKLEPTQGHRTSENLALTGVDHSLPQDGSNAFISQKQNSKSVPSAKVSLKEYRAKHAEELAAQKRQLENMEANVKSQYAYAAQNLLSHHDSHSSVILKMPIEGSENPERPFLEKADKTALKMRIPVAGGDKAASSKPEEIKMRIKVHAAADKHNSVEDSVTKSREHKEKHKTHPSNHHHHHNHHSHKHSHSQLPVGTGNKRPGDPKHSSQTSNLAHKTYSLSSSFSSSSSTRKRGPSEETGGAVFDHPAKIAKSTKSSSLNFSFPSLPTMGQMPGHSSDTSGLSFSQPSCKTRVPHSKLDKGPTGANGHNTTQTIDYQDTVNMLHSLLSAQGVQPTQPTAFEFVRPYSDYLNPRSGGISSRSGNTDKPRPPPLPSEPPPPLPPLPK
Experimental: (§1) This ADP-Glo assay measures ADP formed from a kinase reaction and indirectly quantifies the phosphorylation of peptide substrates by the CDK/cyclin protein complexes. The typical assays were carried out in Nanosyn by combining kinase/cyclin complexes, substrates, compounds, and cofactors (ATP and Mg2+) in a well of a 384-well microtiter plate (Coming 3824) and incubating at 22° C. (Table 4). At the end of the incubation, the reaction is quenched, and conversion is detected by luminescence using the Promega ADP-Glo™ Kinase Assay kit (catalog #V9102). Briefly, 5 μL of 1× enzyme and substrate buffer (or control), 50 nL of 100× compound, and 0.5 μL of 10 mM ATP were sequentially added to a well of a 384-well plate.
(§2) The Final assay buffer mixture contains: 100 mM HEPES, pH 7.5, 0.1% BSA, 0.01% Triton X-100, 1 mM DTT, 5 mM MgCl2, 10 μM Sodium Orthovanadate, 10 μM Beta-Glycerophosphate, 1000 μM Ultra Pure ATP (provided in the Promega ADP-Glo™ Kinase Assay kit), and 1% DMSO (from compound).
(§3) Upon completion, 5 μL of the ADP Glo reagent was added to each well and the plate was further incubated at room temperature for 45 min. 10 μL of the Kinase Detection Reagent was subsequently added to each well. After 10 min of incubation, the plate was read and analyzed on the BioTek Synergy microplate reader using BioTek Gen5 software.

CDK1-CYCLIN B = CDK1-CYCLIN B (Homo sapiens (Human), UniProt P06493); assay: CDK protein kinase inhibition by the ADP-Glo Assay, CDK1-CYCLIN B; type: biochemical; settings: 1000 μM ATP
Sequence of CDK1-CYCLIN B (P06493 whole entry): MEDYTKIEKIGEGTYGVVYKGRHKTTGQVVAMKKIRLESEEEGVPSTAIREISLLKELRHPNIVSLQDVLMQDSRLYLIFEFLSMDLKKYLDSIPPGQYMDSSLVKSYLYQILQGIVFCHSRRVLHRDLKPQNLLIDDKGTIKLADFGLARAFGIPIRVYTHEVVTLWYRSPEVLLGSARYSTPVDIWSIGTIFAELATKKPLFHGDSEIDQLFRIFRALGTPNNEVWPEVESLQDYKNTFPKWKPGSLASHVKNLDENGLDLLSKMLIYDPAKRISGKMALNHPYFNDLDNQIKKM
Sequence of CDK1-CYCLIN B (P14635 whole entry partner): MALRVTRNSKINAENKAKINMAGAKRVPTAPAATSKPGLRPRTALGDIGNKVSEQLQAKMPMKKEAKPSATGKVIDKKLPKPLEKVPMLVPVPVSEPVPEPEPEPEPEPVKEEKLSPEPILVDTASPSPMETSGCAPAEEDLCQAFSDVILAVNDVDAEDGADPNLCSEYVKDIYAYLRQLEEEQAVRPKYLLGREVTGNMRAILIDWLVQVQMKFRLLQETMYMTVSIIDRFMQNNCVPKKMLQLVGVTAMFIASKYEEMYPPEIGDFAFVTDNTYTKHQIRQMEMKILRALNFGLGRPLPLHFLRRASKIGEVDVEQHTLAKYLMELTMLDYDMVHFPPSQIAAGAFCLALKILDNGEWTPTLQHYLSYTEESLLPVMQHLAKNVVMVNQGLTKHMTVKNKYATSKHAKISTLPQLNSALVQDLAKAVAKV
Experimental: as §1, §2, §3

[2] = Homo sapiens, 22Rv1, 120 h, read-out: 22RV1 Cell Growh GI50

GI50 (22RV1 cells; [2]) [nM]	IC50 [1] [nM]	Compound	GI50 (22RV1 cells; read-out: 22RVI, GI50) [nM]	IC50 (CDK9-CYCLIN T1) [nM]	IC50 (CDK1-CYCLIN B) [nM]
≤ 120	150 to 1000	CC(C)(O)c1cnc2c(F)cc(-c3nc(N[C@@H]4C[C@H]5CO[C@H](O5)[C@H]4O)ncc3Cl)cc2c1Cl [Compound 252, (1S,3R,4S,5R)-3-((5-chloro-4-(4-chloro-8-fluoro-3-(2-hydroxypropan-2-yl)quinolin-6-yl)pyrimidin-2-yl)amino)-6,8-dioxabicyclo[3.2.1]octan-4-ol]			
≤ 120	> 1000	CC(C)(O)c1cnc2c(F)cc(-c3nc(N[C@@H]4C[C@H]5CO[C@H](O5)[C@H]4O)ncc3F)cc2c1Cl [Compound 255, (1S,3R,4S,5R)-3-((4-(4-chloro-8-fluoro-3-(2-hydroxypropan-2-yl)quinolin-6-yl)-5-fluoropyrimidin-2-yl)amino)-6,8-dioxabicyclo[3.2.1]octan-4-ol]			
≤ 120	> 1000	Cc1c(C(C)(C)O)cnc2c(F)cc(-c3nc(N[C@@H]4C[C@H]5CO[C@H](O5)[C@H]4O)ncc3F)cc12 [Compound 256, (1S,3R,4S,5R)-3-((5-fluoro-4-(8-fluoro-3-(2-hydroxypropan-2-yl)-4-methylquinolin-6-yl)pyrimidin-2-yl)amino)-6,8-dioxabicyclo[3.2.1]octan-4-ol]			
≤ 120	150 to 1000	Cc1c(C(C)(C)O)cnc2c(F)cc(-c3nc(N[C@@H]4C[C@H]5CO[C@H](O5)[C@H]4O)ncc3Cl)cc12 [Compound 257, (1S,3R,4S,5R)-3-((5-chloro-4-(8-fluoro-3-(2-hydroxypropan-2-yl)-4-methylquinolin-6-yl)pyrimidin-2-yl)amino)-6,8-dioxabicyclo[3.2.1]octan-4-ol]			
≤ 120	150 to 1000	Cc1c(-c2nc(N[C@@H]3C[C@H]4CO[C@H](O4)[C@H]3O)ncc2Cl)sc2c(C(C)C)cnnc12 [Compound 259, (1S,3R,4S,5R)-3-((5-chloro-4-(4-isopropyl-7-methylthieno[3,2-c]pyridazin-6-yl)pyrimidin-2-yl)amino)-6,8-dioxabicyclo[3.2.1]octan-4-ol]			
120 to 450	> 1000	COC(=O)N1CC[C@@H](c2nc3c(F)cc(-c4nc(N[C@@H]5C[C@H]6CO[C@H](O6)[C@H]5O)ncc4F)cc3n2C(C)C)C1 [Compound 265, methyl (R)-3-(4-fluoro-6-(5-fluoro-2-(((1S,3R,4S,5R)-4-hydroxy-6,8-dioxabicyclo[3.2.1]octan-3-yl)amino)pyrimidin-4-yl)-1-isopropyl-1H-benzo[d]imidazol-2-yl)pyrrolidine-1-carboxylate]			
≤ 120	> 1000	CC(C)n1c([C@@H]2CCOC2)nc2c(F)cc(-c3nc(N[C@@H]4C[C@H]5CO[C@H](O5)[C@H]4O)ncc3Cl)cc21 [Compound 268, (1S,3R,4S,5R)-3-((5-chloro-4-(4-fluoro-1-isopropyl-2-((S)-tetrahydrofuran-3-yl)-1H-benzo[d]imidazol-6-yl)pyrimidin-2-yl)amino)-6,8-dioxabicyclo[3.2.1]octan-4-ol]			
120 to 450	> 1000	CC(C)n1c([C@H]2CCOC2)nc2c(F)cc(-c3nc(N[C@@H]4C[C@H]5CO[C@H](O5)[C@H]4O)ncc3F)cc21 [Compound 269, (1S,3R,4S,5R)-3-((5-fluoro-4-(4-fluoro-1-isopropyl-2-((R)-tetrahydrofuran-3-yl)-1H-benzo[d]imidazol-6-yl)pyrimidin-2-yl)amino)-6,8-dioxabicyclo[3.2.1]octan-4-ol]			
120 to 450	> 1000	CC(C)n1c([C@@H]2CCOC2)nc2c(F)cc(-c3nc(N[C@@H]4C[C@H]5CO[C@H](O5)[C@H]4O)ncc3F)cc21 [Compound 270, (1S,3R,4S,5R)-3-((5-fluoro-4-(4-fluoro-1-isopropyl-2-((S)-tetrahydrofuran-3-yl)-1H-benzo[d]imidazol-6-yl)pyrimidin-2-yl)amino)-6,8-dioxabicyclo[3.2.1]octan-4-ol]			
450 to 3000	> 1000	Cc1c(-c2nc(N[C@@H]3C[C@H]4CO[C@H](O4)[C@H]3O)ncc2Cl)sc2c(Cl)c(C(C)(C)O)cnc12 [Compound 275, (1S,3R,4S,5R)-3-((5-chloro-4-(7-chloro-6-(2-hydroxypropan-2-yl)-3-methylthieno[3,2-b]pyridin-2-yl)pyrimidin-2-yl)amino)-6,8-dioxabicyclo[3.2.1]octan-4-ol]			
120 to 450	150 to 1000	Cc1c(-c2nc(N[C@@H]3C[C@H]4CO[C@H](O4)[C@H]3O)ncc2F)sc2c(Cl)c(C(C)(C)O)cnc12 [Compound 276, (1S,3R,4S,5R)-3-((4-(7-chloro-6-(2-hydroxypropan-2-yl)-3-methylthieno[3,2-b]pyridin-2-yl)-5-fluoropyrimidin-2-yl)amino)-6,8-dioxabicyclo[3.2.1]octan-4-ol]			
120 to 450	> 1000	Cc1c(-c2nc(N[C@@H]3C[C@H]4CO[C@H](O4)[C@H]3O)ncc2Cl)sc2c(C)c(C(C)(C)O)cnc12 [Compound 277, (1S,3R,4S,5R)-3-((5-chloro-4-(6-(2-hydroxypropan-2-yl)-3,7-dimethylthieno[3,2-b]pyridin-2-yl)pyrimidin-2-yl)amino)-6,8-dioxabicyclo[3.2.1]octan-4-ol]			
≤ 120	150 to 1000	Cc1c(CN2CC[C@H](F)C2)n(C(C)C)c2cc(-c3nc(N[C@@H]4C[C@H]5CO[C@H](O5)[C@H]4O)ncc3F)ccc2c1=O [Compound 293, 7-(5-fluoro-2-(((1S,3R,4S,5R)-4-hydroxy-6,8-dioxabicyclo[3.2.1]octan-3-yl)amino)pyrimidin-4-yl)-2-(((S)-3-fluoropyrrolidin-1-yl)methyl)-1-isopropyl-3-methylquinolin-4(1H)-one]			
450 to 3000	> 1000	CC(C)n1c(N2C(=O)OC[C@@H]2C)nc2c(F)cc(-c3nc(N[C@@H]4C[C@H]5CO[C@H](O5)[C@H]4O)ncc3Cl)cc21 [Compound 298, (S)-3-(6-(5-chloro-2-(((1S,3R,4S,5R)-4-hydroxy-6,8-dioxabicyclo[3.2.1]octan-3-yl)amino)pyrimidin-4-yl)-4-fluoro-1-isopropyl-1H-benzo[d]imidazol-2-yl)-4-methyloxazolidin-2-one]			
		CC(C)n1c(C(C)(C)O)nc2c(F)cc(-c3nc(N[C@@H]4CCOC[C@H]4O)ncc3Cl)cc21 [Reference Compound, PF-07220060, reference compound]	153	1880	8590
